Where two headings read alike, the source gives them in different places.
Key:
[1] = test system: MV4:11 human cancer cell lines; test: Anti-proliferative activity, CellTiter-Glo viability assay, 7 day protocol; type: cell-based; settings: Homo sapiens, MV4-11, 168 h, MV4:11 cells, 7 day incubation, read-out: GI50 on cellular proliferation of MV4:11 human cancer cell lines
Method in brief: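 MV4:11 cells seeded at 3600 cells/ml and exposed to compounds for 7 days, 0.1% DMSO final. Viability measured by CellTiter-Glo luminescence. GI50 from three biological replicates, each in technical triplicate, given as mean ± S.E.M.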

WDR5 = WDR5 (Homo sapiens (Human), UniProt P61964); test: TR-FRET binding assay (displacement of 10mer-Thr-FAM probe from WDR5)
[2] = read-out: Ki for Inhibition of WDR5 by TR-FRET assay, TR-FRET, 10mer-Thr-FAM probe, WDR5-His tag 2 nM, pH 7.0

| SMILES | GI50 [1] [µM] | Ki (WDR5; [2]) [µM] | Ki (WDR5) [µM] |
| --- | --- | --- | --- |
| Cc1cc([C@@H](NC(=O)c2cc(CN3CCOC3=N)cc(-c3cn(C)nc3C(F)(F)F)c2)C2CC2)ncc1F [Example 300, (S)—N-(Cyclopropyl(5-fluoro-4-methylpyridin-2-yl)methyl)-3-((2-iminooxazolidin-3-yl)methyl)-5-(1-methyl-3-(trifluoromethyl)-1H-pyrazol-4-yl)benzamide] | < 0.1 | < 0.0001 | – |
| COc1cc([C@@H](NC(=O)c2cc(CN3CCOC3=N)cc(-c3cccnc3C(F)(F)F)c2)C2CC2)ccc1F [Example 305, (S)—N-(Cyclopropyl(4-fluoro-3-methoxyphenyl)methyl)-3-((2-iminooxazolidin-3-yl)methyl)-5-(2-(trifluoromethyl)pyridin-3-yl)benzamide] | < 0.1 | < 0.0001 | – |
| Cc1ccnc([C@@H](NC(=O)c2cc(Cn3ccn(C)c3=N)cc(-c3ccc(F)cc3C)c2)C2CC2)c1 [Example 91, (S)—N-(Cyclopropyl(4-methylpyridin-2-yl)methyl)-4′-fluoro-5-((2-imino-3-methyl-2,3-dihydro-1H-imidazol-1-yl)methyl)-2′-methyl-[1,1′-biphenyl]-3-carboxamide] | 0.21 | < 0.0001 | – |
| COc1cc(CNC(=O)c2cc(Cn3ccn(C)c3=N)cc(-c3ccc(F)cc3OC(F)F)c2)cc(OC)c1 [Example 62, 2′-(Difluoromethoxy)-N-(3,5-dimethoxybenzyl)-4′-fluoro-5-((2-imino-3-methyl-2,3-dihydro-1H-imidazol-1-yl)methyl)-[1,1′-biphenyl]-3-carboxamide] | 0.8 | 0.00029 | – |
| COc1cc(OC)cc(C(NC(=O)c2cc(Cn3ccoc3=N)cc(-c3ccc(F)cc3OC(F)F)c2)C2CC2)c1 (centres unmarked) [Example 236, N-(Cyclopropyl(3,5-dimethoxyphenyl)methyl)-2′-(difluoromethoxy)-4′-fluoro-5-((2-iminooxazol-3(2H)-yl)methyl)-[1,1′-biphenyl]-3-carboxamide] | 0.45 | 0.00016 | – |
| CCn1cc(-c2cc(Cn3ccn(C4CC4)c3=N)cc(C(=O)NCc3ccc(=O)n(C)c3)c2)c(C(F)(F)F)n1 [Example 199, 3-((3-Cyclopropyl-2-imino-2,3-dihydro-1H-imidazol-1-yl)methyl)-5-(1-ethyl-3-(trifluoromethyl)-1H-pyrazol-4-yl)-N-((1-methyl-6-oxo-1,6-dihydropyridin-3-yl)methyl)benzamide] | 0.94 | 0.0003 | – |
| Cc1ccnc(C(NC(=O)c2cc(Cn3ccn(C)c3=N)cc(-c3ccc(F)cc3C(F)(F)F)c2F)C2CC2)c1 (centres unmarked) [Example 105, N-(Cyclopropyl(4-methylpyridin-2-yl)methyl)-2,4′-difluoro-5-((2-imino-3-methyl-2,3-dihydro-1H-imidazol-1-yl)methyl)-2′-(trifluoromethyl)-[1,1′-biphenyl]-3-carboxamide] | 0.4 | < 0.0001 | – |
| COc1cc(OC)cc(C(C)NC(=O)c2cc(Cn3ccn(C)c3=N)cc(-c3ccc(F)cc3C)n2)c1 (centres unmarked) [Example 355, N-(1-(3,5-Dimethoxyphenyl)ethyl)-6-(4-fluoro-2-methylphenyl)-4-((2-imino-3-methyl-2,3-dihydro-1H-imidazol-1-yl)methyl)picolinamide] | 1.19 | 0.00357 | – |
| Cc1cc([C@@H](NC(=O)c2cc(Cn3ccoc3=N)cc(-c3cccnc3OC(F)F)c2)C2CC2)ccc1F [Example 261, (S)—N-(Cyclopropyl(4-fluoro-3-methylphenyl)methyl)-3-(2-(difluoromethoxy)pyridin-3-yl)-5-((2-iminooxazol-3(2H)-yl)methyl)benzamide] | 0.73 | 0.00028 | – |
| Cc1cc([C@H](C)NC(=O)c2cc(Cn3ccn(C)c3=N)cc(-c3ccc(F)cc3C(F)(F)F)c2F)ccc1F [Example 172, (S)-2,4′-Difluoro-N-(1-(4-fluoro-3-methylphenyl)ethyl)-5-((2-imino-3-methyl-2,3-dihydro-1H-imidazol-1-yl)methyl)-2′-(trifluoromethyl)-[1,1′-biphenyl]-3-carboxamide] | 0.16 | – | < 0.0001 |

From US10844044B2 (Vanderbilt University, priority 2018, dated 2020)
